Usually LD50 stands for the dose at which mortality reaches 50%.

Counter-ions that a name gives are not always drawn.

Series [1] relates to mice. The series is described as follows: Acute toxicity study in mice after intravenous (tail vein) injection of MPPs or MPP-conjugates. The series is classed as in vivo, mice (Kunming species). The procedure:
A total of 390 mice (Kunming species, 22 ± 2 g, sex matched), were provided by the Experimental animal center of Academy of military medical sciences, China. The health condition of the mice was examined to confirm their suitability for use in the study. The animal rooms were monitored and maintained under a 12 h light‐dark cycle with temperature ranging from 20 to 25°C and a relative humidity of 40–60%. All the mice were allowed to acclimate to the laboratory environment for 2 days, housed by sex in groups of five per cage, provided with standard commercial diet and drinking water ad libitum. All the animal procedures performed in this study were reviewed and approved by the Animal Experimental Welfare and Ethical Inspection Committee of the Chinese Center for Disease Control and Prevention (Approval number IACUC#15‐026).
Firstly, a preliminary sequential toxicity testing was carried to find out the scope of the dosage. Then four dosages within this range were properly selected to carry on the LD50 estimation. The LD50 was calculated avoid the all or none survival groups of mice.
Five males and five females per group were stratified by weight and assigned randomly. The control mice and those in groups 1, 2, 3, 4 were intravenously injected with different doses of MPPs or MPP‐conjugates. The general behavior and signs of toxicity were monitored for 3 h after administration, and carried on once a day up to 14 days. The surviving mice were euthanized while those died from the poisoning were necropsied.
All the data are expressed as the means ± standard deviation (SD), and comparisons among the different groups were performed using an analysis of variance (ANOVA). The IBM statistical package for the social science (SPSS) statistics 20 software was used for all the analysis. The significance level was set at 5 and 1% (P < 0.05 and P < 0.01). The LD50 value was determined according to the Bliss method (Badisa et al. 2008).

Another series has as its system rats. As to conditions: ref Saka et al. 2004; cited from earlier work. The source says: (§1) The mechanism of the poisonous effects caused by TAT and CTP is not yet well understood. However, it is known that L‐arginine stimulates the release of insulin and causes necrotic pancreatitis with specific elevation of amylase in serum and urine. […] Thus, the higher mass ratio of arginine residues in the conjugate (Table 4) might be the best explanation of the toxicity.

In series [2] the test system is mice. As to conditions: converted from rat value; ref Saka et al. 2004; cited from earlier work.
Source text: as §1

The mark [3] stands for this setting: iv, Bliss method, five males and five females per group, observed up to 14 days, Table 2.

Consider ACSSSPSKHCG [TD], for which the “Survival rate (%)” value in the series on mice [1] (iv, 140 mg kg^−1) stood at 100%. Besides, the LD50 is more than 140 mg/kg in the series with mice [1] (setting [3]) and more than 140 mg/kg in the series with mice [1] (iv, rounded values of Table 4). The “Mortality (%)” value with mice [1] (iv, group 1, 80 mg kg^−1) was found to be 0%; with mice [1] (iv, group 2, 100 mg kg^−1) it was 0%; with mice [1] (iv, group 3, 140 mg kg^−1) it was 0%. Moreover, the Mortality in the series with mice [1] (iv, group 1, 80 mg kg^−1, dead/total) is 0/2; with mice [1] (iv, group 2, 100 mg kg^−1, dead/total), 0/8; in the series on mice [1] (iv, group 3, 140 mg kg^−1, dead/total) it was 0/8. Besides, in the series with mice [1] (tail vein, 140 mg kg^−1), the “Survival and side effects in words” value is reported as “all the mice well survived even without any side effect appeared”.

Turning to “RRRRRRRRRRR [R11, undecapeptide composed purely of arginine residues, …]”, the LD50 in the series on mice [1] (iv (tail vein), values in text) came to 16.5 mg/kg; in the series on mice [1] (setting [3]), 16.508 mg/kg; in the series with mice [1] (iv, rounded values of Table 4), 16.5 mg/kg. In the series on mice [1] (iv, 16.5 mg kg^−1), the “Survival rate (%)” value turned out to be 50%. Moreover, the “Mortality (%)” value is 10% in the series on mice [1] (iv, group 1, 15.5 mg kg^−1); 30% in the series on mice [1] (iv, group 2, 16 mg kg^−1); 50% with mice [1] (iv, group 3, 16.5 mg kg^−1); 70% with mice [1] (iv, group 4, 17 mg kg^−1). In addition, the Mortality is reported as 1/10 in the series on mice [1] (iv, group 1, 15.5 mg kg^−1, dead/total); 3/10 in the series on mice [1] (iv, group 2, 16 mg kg^−1, dead/total); 5/10 with mice [1] (iv, group 3, 16.5 mg kg^−1, dead/total); 7/10 in the series with mice [1] (iv, group 4, 17 mg kg^−1, dead/total).

For `NCCCC(=O)O` [GABA, γ‐aminobutyric acid], the Toxicity in words entry in the series on mice [1] (dose as high as 8000 mg kg^−1) was “not toxic at all”. Moreover, the “Survival rate (%)” value with mice [1] (iv, 8000 mg kg^−1) is on record as 100%.

As to “YGRRARRRRRR [CTP, arginine-rich membrane-permeable undecapeptide […]]”, the LD50 amounted to 21.345 mg/kg with mice [1] (iv (tail vein), values in text); 21.345 mg/kg with mice [1] (setting [3]); 21 mg/kg in the series on mice [1] (iv, rounded values of Table 4). Further, the “Survival rate (%)” value in the series on mice [1] (iv, 21 mg kg^−1) is recorded as 50%. Moreover, the “Mortality (%)” value is listed as 20% in the series with mice [1] (iv, group 1, 19.5 mg kg^−1); 30% with mice [1] (iv, group 2, 20 mg kg^−1); 36.4% in the series with mice [1] (iv, group 3, 20.5 mg kg^−1); 60% with mice [1] (iv, group 4, 22 mg kg^−1). The Mortality was 2/10 with mice [1] (iv, group 1, 19.5 mg kg^−1, dead/total); 3/10 with mice [1] (iv, group 2, 20 mg kg^−1, dead/total); 6/10 in the series with mice [1] (iv, group 4, 22 mg kg^−1, dead/total).

For the compound “YGRKKRRQRRR [TAT, arginine-rich membrane-permeable undecapeptide …]”, the LD50 was found to be 27.244 mg/kg in the series on mice [1] (iv (tail vein), values in text); 27.244 mg/kg with mice [1] (setting [3]); 27 mg/kg with mice [1] (iv, rounded values of Table 4). Also, the “Survival rate (%)” value in the series on mice [1] (iv, 27 mg kg^−1) was found to be 50%. Besides, the “Mortality (%)” value in the series on mice [1] (iv, group 1, 25 mg kg^−1) was determined as 22.2%; in the series on mice [1] (iv, group 2, 27 mg kg^−1) it was 44.4%; with mice [1] (iv, group 3, 28 mg kg^−1) it was 55.6%; with mice [1] (iv, group 4, 30 mg kg^−1), 87.5%. For the same compound, the Mortality in the series with mice [1] (iv, group 1, 25 mg kg^−1, dead/total) is reported as 2/9; with mice [1] (iv, group 2, 27 mg kg^−1, dead/total), 4/9; in the series on mice [1] (iv, group 3, 28 mg kg^−1, dead/total), 5/9; in the series on mice [1] (iv, group 4, 30 mg kg^−1, dead/total), 7/8.

Regarding `N=C(N)NCCC[C@H](N)C(=O)O` [arginine], the “LD50 of arginine in rats” value with rats is 3793 mg/kg. Besides, the “LD50 of arginine, corresponding value in mice” value with mice [2] was 542 mg/kg.

Take `O=C(O)C(F)(F)F` [TFA, Trifluoroacetic acid]: the “Toxicity in words (TFA control group)” value in the series with mice [1] (0.1% TFA solution) is given as “did not manifest any toxicity”; in the series on mice [1] (0.5% TFA solution) it was “did not manifest any toxicity”; in the series on mice [1] (1% TFA solution), “did not manifest any toxicity”; in the series on mice [1] (2% TFA solution) it was “death appeared in a part of the mice”.

These data come from paper PMC5625148, “Arginine‐rich membrane‐permeable peptides are seriously toxic” (Pharmacology Research & Perspectives, 2017).
